Measured values reported in patent US20250041624A1, “METHOD FOR ENHANCING ACTIVITY OF PHOTOSENSITIZER BY MAGNETIC FIELD” (PEKING UNIVERSITY, priority 2021, published 2025).

Tests used:
HeLa cells = assay: Annexin V-FITC/PI apoptosis flow cytometry of HeLa cells; format: cell-based; settings: RB 30 μmol/L; for percentage of apoptotic cells: light 561 nm 5 mW·cm−2 10 min
Experimental: (2) HeLa cells (2×10^4/well) are seeded in 6-well plates and cultured for 24 hours, added with RB solution (final concentration 30 μmol/L) or PBS buffer (final concentration 0.01 mol/L), and after treating 24 hours, cells are washed 3 times with PBS buffer.
The cells are placed under a magnetic field at 0, 250 or 800 mT, simultaneously with light (561 nm, 5 mW·cm^−2) or in the dark, and treated 10 minutes. After 24 hours incubation in the dark, cells are stained with Annexin V-FITC/PI Apoptosis Kit (available from Biyotime Biotechnology Co. Ltd), are detected by flow cytometry (BD FACSVerse, Becton Dickinson) and are statistically analysized three times every group, and results are shown in FIG. 13, in which Quadrant Q4 is for the number of healthy cells, Q1 is for the number of early apoptotic cells, Q2 is for the number of late apoptotic cells and Q3 is for the number of necrotic cells.

Bax/Bcl-2 = assay: Western blot of Bax/Bcl-2 in HeLa cells; format: cell-based; settings: RB 30 μmol/L treated HeLa; light; 250 mT vs no magnetic field
Experimental: (§1) HeLa cells (2×10^4/well) are seeded in 6-well plates and cultured for 24 hours, added with RB solution (final concentration 30 μmol/L) or PBS buffer (final concentration 0.01 mol/L), and after treating 24 hours, cells are washed 3 times with PBS buffer.
(§2) The cells are placed under a magnetic field at 0, 250 or 800 mT, simultaneously with light (561 nm, 5 mW·cm^−2) or in the dark. After 24 hours treatment, cells are washed with PBS buffer and collect by centrifugation. Protein is extracted from cells using RIPA lysis buffer (medium lysis strength). Target protein is detected with primary antibody, to identify cleaved Caspase-3 protease, Bax (BCL2-Associated X protein) and Bcl-2 (B lymphocytomatose-2 gene), respectively, with β-Actin antibody as the reference. Images are acquired by Bio-Rad ChemiDoc touch imaging system, and results are shown in FIG. 14, in which, group A is PBS buffer treated HeLa cells (light, no magnetic field); group B is RB treated HeLa cells (light, no magnetic field); group C is RB-treated Hela cells (light, 250 mT magnetic field); group D is RB-treated Hela cells (light, 800 mT magnetic field).
(§3) The change rate of protein expression is (AB−A0)/A0×100%, where AB and A0 are protein expression with and without magnetic field, respectively (obtained by ImageJ software analyzing the bands in FIG. 14).

cleaved Caspase-3 = assay: Western blot of cleaved Caspase-3 in HeLa cells; format: cell-based; settings: RB 30 μmol/L treated HeLa; light; 250 mT vs no magnetic field
Experimental: as §1, §2, §3

HeLa xenograft tumor = HeLa xenograft tumor growth in BALB/c nude mice with photodynamic treatment and magnetic field; format: in vivo; settings: RB 1.0 mg/kg intratumoral, 14 days
Experimental: Twenty-four five-weeks old female BALB/c nude mice are selected, 1×10^6 HeLa cells (in 200 μL 0.01 mol/L PBS buffer) are inoculated subcutaneously into the dorsal right flank of each mouse, and a xenograft tumor model is established (Five-weeks old female BALB/c nude mice are obtained from Beijing Agronomy and housed under standard environmental conditions. All animal procedures are approved by Beijing Agronomy Animal Care and Use Committee). After tumors growing up, 25 μL RB (1.0 mg/kg) or an equal volume of PBS buffer at a concentration of 0.01 mol/L are injected intratumorally.
The treatment conditions for dividing the mice into 8 groups (3 mice each) are as follows: • (1) Injection of PBS buffer-no light-no magnetic field (PBS-dark-0mT); • (2) Injection of PBS buffer-light-no magnetic field (PBS-light-0mT); • (3) Injection of PBS buffer-light-250mT magnetic field (PBS-light-250mT); • (4) Injection of PBS Buffer-Light-800mT magnetic field (PBS-light-800mT); • (5) RB-light-no magnetic field (RB-light-0mT) injection (RB-light-0mT); • (6) Injection of RB-light-100mT magnetic field (RB-light-100mT); • (7) Injection of RB-light-250mT magnetic field (RB-light-250mT); • (8) Inject RB-light-800mT magnetic field (RB-light-800mT).
All groups except group (1) receive light 5 min after injection at wavelength of 400-700 nm and power of 100 mW·cm^−2 and light time of 10 min. The tumor area of mice in groups (3), (4) and (6)-(8) are exposed to static magnetic field by using electromagnet during light exposure.
Test (one): Tumor size is monitored with digital calipers every other day for the following 14 days (peripheral measurements of tumors are performed […]), and tumors are calculated by Volume=Length×Width×[…]. Results for groups (2), (4), (5), (7), (8) are shown in FIG. 16, in which, ** is statistical probability p<0.01; *** is p<0.005, p<0.05 is considered significant. Each group is sacrificed 3 mice on day 14 post-injection, tumor tissues are collected for photographing and weighing, and tumor tissues are removed from groups (2), (3), (4), (5), (7), (8) as shown in FIG. 17; the rate of mass change of the tumor tissue in groups (5), (7), (8) is shown in FIG. 18, and the rate of mass change is (ωB−ω0)/ω0×100%, where ωB is the tumor mass under magnetic field conditions and ω0 is the tumor mass in group (5).

[1] = Body weight, abnormal signs and H&E staining of major organs of treated mice; format: in vivo; settings: all groups
Description: Test (two): After sacrificing the mice on day 14, tumor tissue and major organs (heart, liver, spleen, lungs and kidney) are collected and detected histologically. Tumor tissue and major organs are fixed by 10% neutral formalin solution. Hematoxylin-Eosin (H&E) staining is used to analyze toxicity of light and magnetic field effects on tumor and normal organs. Terminal deoxynucleotidyl transferase-mediated dUTP nick end labeling (TUNEL) staining is used to detect apoptosis in tumor tissue, and expression of cleaved Caspase-3, Bax and Bcl-2 in tumor tissue is simultaneously detected.

Structure (SMILES): O=C1OC2(c3cc(I)c(O)c(I)c3Oc3c2cc(I)c(O)c3I)c2c(Cl)c(Cl)c(Cl)c(Cl)c21 [RB, Rose Bengal]
- percentage of apoptotic cells (HeLa cells; 250 mT): 75.9%
- percentage of apoptotic cells (HeLa cells; 800 mT): 32.9%
- percentage of apoptotic cells (HeLa cells; no magnetic field): 63.8%
- increase of percentage of apoptotic cells vs no magnetic field (HeLa cells; light, 250 mT): 19%
- change rate of Bax/Bcl-2 expression (%) (Bax/Bcl-2): 10.6 ± 0.5%
- change rate of cleaved Caspase-3 expression (%) (cleaved Caspase-3): 34.1 ± 1.9%
- tumor growth (volume and mass) (HeLa xenograft tumor; group (5) RB-light-0mT, 400-700 nm 100 mW·cm−2 10 min): inhibition of tumor growth
- magnetic field effect on tumor growth (HeLa xenograft tumor; group (6) RB-light-100mT): no significant effect on tumor growth
- tumor growth (volume and mass) (HeLa xenograft tumor; group (7) RB-light-250mT): further inhibition of tumor growth
- magnetic field effect on tumor growth (HeLa xenograft tumor; group (8) RB-light-800mT): no significant effect on tumor growth
- systemic toxicity (H&E staining of major organs) ([1]; heart, liver, spleen, lungs and kidney, day 14, FIG. 20): do not result in systemic toxicity
- body weight loss or other abnormal signs ([1]; mice, 14 days): No body weight loss or other abnormal signs
